Structures are written as SMILES. pIC50: −log10 of the molar value. Structures can show the parent of a compound that is named as a salt.

The target of one data set is T1, hERG channels (Homo sapiens, UniProt Q12809).
T1 construct: expressed in transfected cells
T1 sequence (Q12809 whole entry): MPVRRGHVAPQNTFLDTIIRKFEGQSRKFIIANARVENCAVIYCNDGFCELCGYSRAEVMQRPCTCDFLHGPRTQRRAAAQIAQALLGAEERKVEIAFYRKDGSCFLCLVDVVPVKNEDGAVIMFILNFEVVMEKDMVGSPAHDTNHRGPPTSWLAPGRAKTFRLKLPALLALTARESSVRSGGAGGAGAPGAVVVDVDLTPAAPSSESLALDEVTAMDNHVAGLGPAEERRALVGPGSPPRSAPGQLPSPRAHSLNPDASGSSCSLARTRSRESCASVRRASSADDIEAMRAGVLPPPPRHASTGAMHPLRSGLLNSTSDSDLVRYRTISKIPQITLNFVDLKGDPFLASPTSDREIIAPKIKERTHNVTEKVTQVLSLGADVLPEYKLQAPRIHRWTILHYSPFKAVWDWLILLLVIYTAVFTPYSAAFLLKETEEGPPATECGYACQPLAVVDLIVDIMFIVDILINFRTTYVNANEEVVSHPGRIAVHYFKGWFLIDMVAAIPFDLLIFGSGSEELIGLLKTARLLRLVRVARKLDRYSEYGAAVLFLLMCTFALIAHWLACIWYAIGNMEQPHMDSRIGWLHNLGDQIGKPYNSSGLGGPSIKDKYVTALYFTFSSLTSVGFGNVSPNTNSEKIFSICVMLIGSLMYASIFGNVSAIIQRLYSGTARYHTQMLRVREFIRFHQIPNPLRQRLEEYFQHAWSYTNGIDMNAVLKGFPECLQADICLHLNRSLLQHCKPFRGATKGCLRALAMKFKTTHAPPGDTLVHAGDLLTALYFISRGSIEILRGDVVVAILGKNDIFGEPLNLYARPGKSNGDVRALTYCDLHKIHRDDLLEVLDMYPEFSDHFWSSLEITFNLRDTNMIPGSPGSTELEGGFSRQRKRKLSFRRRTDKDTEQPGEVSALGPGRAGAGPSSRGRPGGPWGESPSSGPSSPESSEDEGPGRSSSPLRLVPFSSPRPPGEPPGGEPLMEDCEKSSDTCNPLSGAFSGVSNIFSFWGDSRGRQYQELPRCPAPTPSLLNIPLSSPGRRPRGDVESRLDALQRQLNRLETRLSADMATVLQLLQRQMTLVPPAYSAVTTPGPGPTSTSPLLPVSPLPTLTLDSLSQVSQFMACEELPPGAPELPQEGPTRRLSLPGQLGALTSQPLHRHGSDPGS
The data set can be described thus: hERG patch clamp on clone hERG channels in mammalian cells. Format: cell-based. As to conditions: test article 1 μm, cisapride positive control, read-out: Experimental hERG Activity. As for the experimental part: hERG activity was measured using a patch clamp method on clone hERG channels in mammalian cells. The concentration of test articles was 1 μm and a comparison was made to both a positive (cisapride) and negative (vehicle) control.
(hERG is a cardiac potassium channel; its block is linked to QT prolongation.)
On to `Cc1ccc(C)c(OCCCCCCN(CCO)CCO)c1`, for which the pIC50 is over 5.70.
`OCCN(CCO)CCCCCCCCOc1ccccc1O`: the pIC50 was 5.30 to 5.70.
Take `Cc1ccc(C)c(OCCCCCCCN(CCO)CCO)c1`: the pIC50 is over 5.70.
`Cc1ccc(C)c(OCCCCCCCN2CCOCC2)c1`: the pIC50 is over 5.70.

Test system in another data set: not given
Test: not given
Conditions: not given
The melting point is the temperature, or range, at which the solid turns liquid. Regarding `OCCN(CCO)CCCCCCOc1ccccc1O` (as salt: hydrochloride) [Compound 2-HPHD, 6-(2-hydroxyphenoxyl)hexyldiethanolamine], the melting point lay within 95 to 97 °C.
As for `Cc1ccc(F)c(OCCCCN(CCO)CCO)c1` (as salt: hydrochloride) [Compound 2-FPBD, 4-(2-fluoro-5-methylphenoxy)butyldiethanolamine], the melting point fell in the range of 83 to 86 °C.

Source of the values: US9458089B2, “Phenoxy alkyl diethanolamine and diisopropanolamine compounds for delivering active agents” (EMISPHERE TECHNOLOGIES, INC., priority 2012, dated 2016).
